Measurements published in the NIST ThermoML archive (doi:10.1016/j.jct.2008.09.002).
Numbers after ± are expanded uncertainties.

Assays:
[1] = 101.33 kPa, Liquid; for speed of sound: Anton-Paar DSA48 sound analyzer; for mass density: Vibrating tube method
[2] = molar heat capacity at constant pressure; conditions: 101.33 kPa, Liquid, Small sample (50 mg) DSC
[3] = excess molar enthalpy (molar enthalpy of mixing); xn = mol fraction of the nth substance listed; conditions: 303.15 K, 101.3 kPa, Liquid, Calvet calorimetry

SMILES	speed of sound ([1]; 293.15 K) [m/s]	mass density ([1]; 293.15 K) [kg/m3]	speed of sound ([1]; 298.15 K) [m/s]	mass density ([1]; 298.15 K) [kg/m3]	speed of sound ([1]; 303.15 K) [m/s]	mass density ([1]; 303.15 K) [kg/m3]	speed of sound ([1]; 308.15 K) [m/s]	mass density ([1]; 308.15 K) [kg/m3]	speed of sound ([1]; 313.15 K) [m/s]	mass density ([1]; 313.15 K) [kg/m3]	speed of sound ([1]; 318.15 K) [m/s]	mass density ([1]; 318.15 K) [kg/m3]	molar heat capacity at constant pressure ([2]; 293.15 K) [J/K/mol]	molar heat capacity at constant pressure ([2]; 298.15 K) [J/K/mol]	molar heat capacity at constant pressure ([2]; 303.15 K) [J/K/mol]	molar heat capacity at constant pressure ([2]; 308.15 K) [J/K/mol]	molar heat capacity at constant pressure ([2]; 313.15 K) [J/K/mol]	molar heat capacity at constant pressure ([2]; 318.15 K) [J/K/mol]	further results
CCCCn1cc[n+](C)c1.COS(=O)(=O)[O-] [1-butyl-3-methylimidazolium methyl sulfate]	1670.9 ± 2	1210.7 ± 1.3	1658.4 ± 2	1207.4 ± 1.3	1646 ± 2	1204.1 ± 1.3	1633.5 ± 2	1200.8 ± 1.3	1621.1 ± 2	1197.5 ± 1.3	1608.6 ± 2	1194.2 ± 1.3	413.7 ± 6.4	416.2 ± 6.4	418.5 ± 6.5	420.9 ± 6.5	423.3 ± 6.6	425.6 ± 6.6	
CCCCn1cc[n+](C)c1.F[B-](F)(F)F [1-butyl-3-methylimidazolium tetrafluoroborate]	1594.9 ± 2	1207.6 ± 1.3	1576.1 ± 2	1204.1 ± 1.3	1555.5 ± 2	1200.5 ± 1.3	1543.9 ± 2	1197 ± 1.3	1532.5 ± 2	1193.4 ± 1.3	1521.2 ± 2	1189.9 ± 1.3	359.8 ± 5.6	363.1 ± 5.6	366.1 ± 5.7	368.7 ± 5.7	371 ± 5.7	372.9 ± 5.8	
CCCCn1cc[n+](C)c1.O=S(=O)([O-])C(F)(F)F [1-butyl-3-methylimidazolium trifluoromethanesulfonate]	1403.4 ± 2	1301.6 ± 1.5	1392.1 ± 2	1297.6 ± 1.5	1380.9 ± 2	1293.7 ± 1.5	1369.8 ± 2	1289.7 ± 1.5	1358.8 ± 2	1285.8 ± 1.5	1348.1 ± 2	1281.9 ± 1.5	421.6 ± 6.5	424.1 ± 6.6	426.7 ± 6.6	429.5 ± 6.7	432.4 ± 6.7	435.5 ± 6.7	
CCCC[n+]1cccc(C)c1.F[B-](F)(F)F [1-butyl-3-methylpyridinium tetrafluoroborate]	1599.8 ± 2		1587 ± 2		1574.8 ± 2		1562.6 ± 2		1550.7 ± 2		1538.9 ± 2								
CCOS(=O)(=O)[O-].CCn1cc[n+](C)c1 [1-ethyl-3-methylimidazolium ethyl sulfate]	1691.4 ± 2	1240.6 ± 1.4	1679 ± 2	1237.2 ± 1.4	1666.6 ± 2	1233.8 ± 1.4	1654 ± 2	1230.4 ± 1.3	1641.6 ± 2	1227 ± 1.3	1629.2 ± 2	1223.7 ± 1.3	392.2 ± 6.1	394.4 ± 6.1	396.8 ± 6.1	399.3 ± 6.2	402 ± 6.2	404.9 ± 6.3	
CCn1cc[n+](C)c1.O=S(=O)([O-])C(F)(F)F [1-ethyl-3-methylimidazolium trifluoromethanesulfonate]	1447 ± 2	1389.5 ± 1.7	1435.6 ± 2	1385.3 ± 1.7	1424.3 ± 2	1381.1 ± 1.7	1413.1 ± 2	1376.9 ± 1.7	1402.1 ± 2	1372.7 ± 1.7	1391.1 ± 2	1368.6 ± 1.7	361.1 ± 5.6	363.2 ± 5.6	365.3 ± 5.7	367.4 ± 5.7	369.6 ± 5.7	371.8 ± 5.8	
CCCCCCn1cc[n+](C)c1.F[B-](F)(F)F [1-hexyl-3-methylimidazolium tetrafluoroborate]	1532.7 ± 2	1148.8 ± 1.2	1519.5 ± 2	1145.3 ± 1.1	1506.9 ± 2	1141.8 ± 1.1	1494.5 ± 2	1138.4 ± 1.1	1482.3 ± 2	1135 ± 1.1	1470.5 ± 2	1131.6 ± 1.1	425.1 ± 6.6	427.8 ± 6.6	430.4 ± 6.7	433 ± 6.7	435.5 ± 6.7	438.1 ± 6.8	
C[N+](=O)[O-] [nitromethane]	1339.6 ± 1.5	1140.2 ± 0.7	1320.1 ± 1.5	1133.4 ± 0.7	1300.5 ± 1.5	1126.6 ± 0.7	1280.7 ± 1.5	1119.7 ± 0.6	1261.1 ± 1.5	1112.9 ± 0.6	1241.6 ± 1.5	1106 ± 0.6	106.6 ± 1.7	106.9 ± 1.7	107.3 ± 1.7	107.7 ± 1.7	108.2 ± 1.7	108.6 ± 1.7	
C[N+](=O)[O-] [nitromethane] + CCCC[n+]1cccc(C)c1.F[B-](F)(F)F																			excess molar enthalpy ([3]; x2 = 0.0992): -0.252 ± 0.02 kJ/mol; excess molar enthalpy ([3]; x2 = 0.1547): -0.328 ± 0.026 kJ/mol; excess molar enthalpy ([3]; x2 = 0.1998): -0.401 ± 0.032 kJ/mol; excess molar enthalpy ([3]; x2 = 0.3029): -0.443 ± 0.036 kJ/mol; excess molar enthalpy ([3]; x2 = 0.3978): -0.476 ± 0.038 kJ/mol; excess molar enthalpy ([3]; x2 = 0.4973): -0.47 ± 0.038 kJ/mol; excess molar enthalpy ([3]; x2 = 0.6053): -0.396 ± 0.032 kJ/mol; excess molar enthalpy ([3]; x2 = 0.7038): -0.336 ± 0.027 kJ/mol; excess molar enthalpy ([3]; x2 = 0.795): -0.233 ± 0.019 kJ/mol; excess molar enthalpy ([3]; x2 = 0.8525): -0.162 ± 0.013 kJ/mol
